Source: PubChem BioAssay (NCI)
Several values for one entry are separate records, joined by “and”; a condition that tells them apart may be missing. Equal values may be shown once.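 48-hour exposure; five concentrations; linearly interpolated endpoints. GI50 = concentration required for 50% inhibition of growth. TGI is the concentration that stops growth completely.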

Legend:
Experiment in all cases: DTP human tumour cell line panel, 48 h
[1] = test system: SK-MEL-28 melanoma
[2] = test system: SNB-19 CNS
[3] = test system: SF-295 CNS
[4] = test system: M14 melanoma
[5] = test system: TK-10 renal
[6] = test system: UO-31 renal
[7] = test system: HCC-2998 colon
[8] = test system: SNB-75 CNS
[9] = test system: HCT-15 colon
[10] = test system: NCI-H460 lung

Row | Compound | TGI [1] [µM] | TGI [2] [µM] | TGI [3] [µM] | TGI [4] [µM] | TGI [5] [µM] | TGI [6] [µM] | TGI [7] [µM] | TGI [8] [µM] | TGI [9] [µM] | TGI [10] [µM] | GI50 [1] [µM] | GI50 [2] [µM] | GI50 [3] [µM] | GI50 [4] [µM] | GI50 [5] [µM] | GI50 [6] [µM] | GI50 [7] [µM] | GI50 [8] [µM] | GI50 [9] | GI50 [10] [µM]
1 | COc1ccc(NC(=O)c2cc(OC)cc(OC)c2)cc1 | > 100 | > 100 | > 64.5 | > 100 | > 100 | > 100 | > 100 | > 83.6 | > 100 | > 100 | – | – | – | – | – | – | – | – | – | –
2 | COc1cc(/C=C/c2cc(/C=C/c3ccc(O)c(OC)c3)n(C(=O)Nc3ccc(F)cc3)n2)ccc1O | 7.84 | 22.7 | 29.7 | 7.5 | 19.2 | 6.27 | 10.6 | 9.48 | 21.8 | 12.4 | 0.912 | 1.23 | 2.63 | 0.46 | 3.43 | 0.587 | 2.53 | 0.551 | 0.566 µM | 0.546
3 | CCOC(=O)C(Sc1ccccc1)c1c(OC)cc(=O)oc1/C=[N+](/[O-])c1ccc(N(C)C)cc1 (centres undefined) | 37 | > 100 | 67 | 31.1 | 89.5 | 41.9 | 58.7 | 76.4 | 31.8 | 82.5 | – | – | – | – | – | – | – | – | – | –
4 | NC1CCC(Nc2nc(NCc3ccc(-c4ccco4)nc3)c3ncn(C4CCCC4)c3n2)CC1 (centres undefined) | 0.0686 | 12.5 | – | 0.193 | 12.8 | 0.747 | 0.627 | 0.0299 | 7.81 | 11.3 | 0.0227 | 0.0275 | 0.0751 | 0.0213 | 0.16 | 0.17 | 0.0316 | 0.0101 | 0.298 µM and 1.27 µM | 0.0469
5 | O=C(Nc1ccc(I)cc1)c1cc([N+](=O)[O-])ccc1O | 72.3 | > 100 | 39.8 | 62.8 | > 100 | 47.6 | 84 | 67 | 38.9 | 56.8 | 9.53 | 5.5 | 4.02 | 12.8 | 9.9 | 3.77 | 3.82 | 8.89 | 5.77 µM | 6.42
6 | O=C1C2=C(SCCS2)C(=O)c2ccccc21 | 3.26 | 2.87 | 3.14 | 3.33 | 3.24 | 3.37 | 3.11 | 3.03 | 3.08 | 3.38 | – | – | – | – | – | – | – | – | – | –
7 | CCOc1ccccc1-n1c(CN2CCN(C(=O)COc3ccc(CNCCCCCCN4C5CCCC4CC(OC(=O)Nc4cc(C)ccc4OC)C5)cc3)CC2)nc2ccccc2c1=O (centres undefined) | 3.25 | 3.35 | 3.27 | 3.01 | 3.14 | 8.15 | 3.15 | 2.72 | 5.4 | 1.94 | 1.81 | 1.76 | 1.66 | 1.43 | 1.72 | 4.07 | 1.57 | 1.4 | 2.23 µM | 0.806
8 | NC(CSC(c1ccccc1)(c1ccccc1)c1ccc2c(c1)OCO2)C(=O)O (centres undefined) | 98.5 | > 100 | > 48.4 | 0.648 | > 100 | > 100 | 3.49 | 7.06 | > 81 | > 40 | 0.799 | 0.665 | 0.352 | 0.239 | 10.6 | 9.6 | 0.35 | 0.283 | 1.15 µM | 0.375
9 | CCCCCCCCSC1=CC(=O)c2nc3ccccc3c3ccnc1c23 | > 100 | > 100 | > 100 | > 100 | > 100 | > 100 | > 100 | > 100 | > 100 | > 100 | 42.7 | > 100 | > 100 | > 100 | > 100 | 49.5 | > 100 | > 100 | 38.4 µM | 26.3
10 | COc1ccc(-c2cc(-c3ccc(Nc4nc(Nc5ccccc5)nc(Nc5ccc(Cl)cc5)n4)cc3)nc(N)c2C#N)cc1 | 1.76 | > 50 | 7.28 | 1.81 | 1.79 | 1.49 | 4.41 | 2.71 | 3.68 | > 39 | 0.857 | > 24.8 | 1.54 | 0.887 | 0.974 | 0.72 | 1.41 | 0.737 | 1.2 µM | 2.18
11 | O=[N+]([O-])c1cnc(Sc2ccncn2)s1 | 3.69 | 31.9 | 41 | 7.25 | 4.22 | 3.2 | 10.7 | 18.8 | 3.44 | 25.9 | 1.98 | 15.9 | 18 | 2.76 | 2.14 | 1.75 | 5.46 | 3.84 | 1.75 µM | 8.12
12 | COc1ccc(-n2/c(=N/C(=S)N(C)C)ss/c2=N\C(=S)N(C)C)cc1 | > 100 | 45.5 | > 100 | > 100 | > 100 | > 100 | > 100 | 52.6 | > 100 | 11.2 | – | – | – | – | – | – | – | – | – | –
13 | COc1cc2nc(-c3ccc(C(F)(F)F)cc3)cc(OCCCN3CCC(O)CC3)c2cc1OC | 11.5 | 28.3 | 3.83 | 2.26 | 25.7 | 14.6 | 19.9 | 10.8 | 13.8 | 16 | 2.38 | 10.5 | 1.61 | 0.535 | 11.5 | 2.71 | 4.07 | 2.58 | 0.667 µM | 0.835
